Measured values from the NIST ThermoML archive (doi:10.1021/je300347z).

What was measured:
[1] = Liquid; for mass density: 293.2 K, 101.33 kPa, Vibrating tube method
[2] = refractive index (Na D-line) (dimensionless); conditions: 293.2 K; 101.33 kPa; Liquid; Standard Abbe refractometry

CCO [ethanol]
Conditions | mass density [kg/m3] | refractive index
[1] | 789.91 | –
[2] | – | 1.3612

[1]
Conditions | vapor or sublimation pressure [kPa]
302.4 K | 10
315.4 K | 20
323.6 K | 30
329.7 K | 40
330 K | 40
334.7 K | 50
338.8 K | 60
342.4 K | 70
345.6 K | 80
348.5 K | 90
351.1 K | 100

C=C(C)[C@H]1CC=C(C)CC1 [(R)-1-methyl-4-(1-methylethenyl)cyclohexene]
Conditions | mass density [kg/m3] | refractive index
[1] | 814.83 | –
[2] | – | 1.473

[1]
Conditions | vapor or sublimation pressure [kPa]
375.5 K | 10
394.5 K | 20
403.2 K | 27.48
406.5 K | 30
415.7 K | 40
415.8 K | 40
423.2 K | 49.74
423.4 K | 50
429.8 K | 60
435.5 K | 70
440.5 K | 80
445 K | 90
450 K | 100

CC(C)O [propan-2-ol]
Conditions | mass density [kg/m3] | refractive index
[1] | 785.42 | –
[2] | – | 1.3771

[1]
Conditions | vapor or sublimation pressure [kPa]
307.1 K | 10
319.9 K | 20
328 K | 30
334 K | 40
334.1 K | 40
338.8 K | 50
342.9 K | 60
346.5 K | 70
349.7 K | 80
352.5 K | 90
355 K | 100

CCCCCO [pentan-1-ol]
Conditions | mass density [kg/m3] | refractive index
[1] | 814.16 | –
[2] | – | 1.4097

[1]
Conditions | vapor or sublimation pressure [kPa]
354 K | 10
368.7 K | 20
378 K | 30
384.7 K | 40
385.3 K | 40
391 K | 50
395.9 K | 60
400.2 K | 70
403.9 K | 80
407.3 K | 90
410.4 K | 100

CCCO [propan-1-ol]
Conditions | mass density [kg/m3] | refractive index
[1] | 801.33 | –
[2] | – | 1.3851

[1]
Conditions | vapor or sublimation pressure [kPa]
319.6 K | 10
332.8 K | 20
341.3 K | 30
347.7 K | 40
352.7 K | 50
357.1 K | 60
360.8 K | 70
364.1 K | 80
367.1 K | 90
369.8 K | 100

CCCCCCO [hexan-1-ol]
Conditions | mass density [kg/m3] | refractive index
[1] | 816.31 | –
[2] | – | 1.4207

[1]
Conditions | vapor or sublimation pressure [kPa]
369.8 K | 10
385.7 K | 20
395.7 K | 30
403.2 K | 40
403.4 K | 40
409.3 K | 50
414.5 K | 60
419 K | 70
423 K | 80
426.5 K | 90
429.6 K | 99.7

CCCCO [butan-1-ol]
Conditions | mass density [kg/m3] | refractive index
[1] | 810.28 | –
[2] | – | 1.3993

[1]
Conditions | vapor or sublimation pressure [kPa]
337.2 K | 10
351.1 K | 20
360 K | 30
366.7 K | 40
372.1 K | 50
376.6 K | 60
380.5 K | 70
384 K | 80
387.2 K | 90
390.1 K | 100
